Laboratory results reported in patent US12201598B2, “Immunoregulatory microparticles for modulating inflammatory arthritides” (The Regents of the University of California, priority 2021, dated 2025).

Key:
[1] = test system: Naïve SKG CD4+ T cells; experiment: ex vivo Th17 differentiation assay in Th17 inflammatory conditions; assay type: cell-based, mouse; details: for FoxP3 expression in CD4+ T cells: Th17 polarizing cytokines, four days
Experimental: To test the effect of ATRA on enhancing Treg cells, an ex vivo differentiation and stabilization assay in Th17 inflammatory conditions using cytokine supplementation was performed (FIG. 1A). Naïve SKG CD4+ T cells were isolated to consistently obtain greater than 90% CD4+CD44−CD62L+ post-enrichment (data not shown). Subsequently, these cells were stimulated with anti-mouse CD3 (αCD3) and CD28 (αCD28) antibodies along with Th17 polarizing cytokines IL-6, TGF-β1, IL-1β, and IL-23, and immunophenotypes were analyzed after four days. In a subset of conditions, ATRA was added to the T cell culture medium, ranging from 10 pM to 10 nM. […] In addition to reduced expression of IL-17A, the fraction of RORγt+CD4+ T cells was reduced in 1 nM ATRA conditions (53.3±7.9%) relative to cells exposed 0 nM ATRA (73.3±3.9%) (FIG. 1D).
(§1) The bioactivity of released ATRA was assessed following the experimental schematic outlined in FIG. 1A with supernatant collected at day 1, 14 and 28 and replicates diluted to the expected joint concentration based on delivery of 2 μg ATRA-encapsulated PLGA MPs injected in ˜20 μL of synovial fluid.

[2] = test system: rodents; details: cited from earlier work
[3] = test system: healthy C57BL/6J (B6) mice; experiment: OVA immunization in healthy C57BL/6J mice; assay type: in vivo, mouse; details: spleen; daily i.p. administration
Excerpt: To quantify the effect of IA ATRA-encapsulated PLGA MPs on arthritis-irrelevant T cell suppression we leveraged OVA-specific tetramers available for quantifying T cells in H2b-background mice and conducted the aforementioned immunization study in healthy C57BL/6J (B6) mice (FIG. 8D). Systemically administered ATRA was delivered as a daily intraperitoneal (i.p.) injection to assess the effect of systemic exposure.

[4] = test system: CD4+ T cells; experiment: 24-hour pretreatment then transfer to Th17 inducing conditions; assay type: cell-based; details: 24-hour pretreatment 1 nM ATRA, washed
Experimental: FIG. 10A depicts the quantification of FOXP3 expression in CD4+ T cells after 24-hour pretreatment with either nothing (None), 1 nM ATRA (ATRA), or IL-2, followed by removal and washing of the cells, and transfer to Th17 inducing conditions. FIG. 10B depicts quantification of IL-17 expression in CD4+ T cells after a 24-hour pretreatment with either nothing (None), 1 nM ATRA (ATRA), or IL-2, followed by removal and washing of the cells, and transfer to Th17 inducing conditions. Pre-treatment of the CD4+ T cells with ATRA increases FOXP3 expression and reduces IL-17 expression after exposure to Th17 inducing conditions.

[5] = test system: SKG FoxP3eGFP Treg cells; experiment: Treg cell stability (destabilization) assay; assay type: cell-based, mouse; details: 1 nM ATRA, IL6, 72 hours
Experimental: The loss of FoxP3 expression correlated with Treg cell transitioning to a Th17-like exTreg cell phenotype, with 23.0±1.7% and 13.3±1.5% of cells without ATRA expressing RORγt and IL-17, respectively, compared to 11.6±1.8% and 5.7±1.1% of cells cultured with 1 nM ATRA (FIGS. 1G and H).
as §1

[6] = test system: chromatin of cells cultured in Th17 inducing conditions; experiment: Assay for Transposase Accessible Chromatin (ATAC) sequencing; assay type: cell-based
Experimental: Assay for Transposase Accessible Chromatin (ATAC) sequencing assay uses a hyperactive protein to bind and snip DNA in open chromatin regions to probe for the parts of DNA are accessible for transcription. The ATAC assay was performed to determine whether ATRA causes epigenetic modifications to cellular DNA to influence the accessibly of DNA for transcription and, in turn, modulating what a cell's “default” state/programs are. Quantification of differentially accessible regions (DARs) is shown by counts per peak between cells cultured in Th17 inducing conditions with (ATRA Treated) or without (Th17 Control) 1 nM ATRA. (FIG. 11A).
FIG. 11C is a heatmap of all DARs grouped in rows by those enriched in the ATRA treated group or those enriched in the Tb17 Control group. Heatmapping was performed by determining the z-score of the DAR in a given sample as compared to the row. A Genome browser plot for Th17 and Treg associated genes is shown (FIG. 11D). The size of the peaks corresponds to the number of reads, so the bigger the peaks are the more accessible that region of DNA is.

[7] = test system: arthritic SKG mice; experiment: subcutaneous administration to arthritic SKG mice; assay type: in vivo, mouse; details: subcutaneously between the scapula
Experimental: The efficacy of subcutaneously administered ATRA-encapsulated PLGA MPS in treating SKG mice was assessed to determine whether ATRA-encapsulated PLGA MPS act via systemic release, in which case subcutaneous ATRA-encapsulated PLGA MPS treatment would improve disease scores, or if ATRA-encapsulated PLGA MPS treatment acts locally, in which case its delivery to the intra-articular space would improve disease scores. ATRA-encapsulated PLGA MPS, dose-matched Bolus ATRA in corn oil, and vehicle (corn oil) were administered to arthritic SKG subcutaneously between the scapula of SKG mice (FIGS. 9A-B).

[8] = test system: SKG mice with mannan-induced arthritis; experiment: IA treatment of established SKG arthritis (clinical score, ankle thickness); assay type: in vivo, mouse
Experimental: To assess the feasibility of modulating established SKG arthritis. ATRA-encapsulated PLGA MPs were injected into the tibial/tarsal ankle joint of ten SKG mice with middle stage arthritis, prior to the development of severe symptoms. PLGA-Blank MPs were injected into the tibial/tarsal ankle joint of eleven SKG mice with middle stage arthritis. Arthritis onset was synchronized using inter-peritoneal (IP) mannan injection. ATRA-encapsulated PLGA MPs treatment was administered after 14 days, corresponding to established SKG arthritis (FIG. 3A). To track MP degradation in vivo, cyanine-5 (Cy5) conjugated PLGA was incorporated to generate fluorescently labeled Cy5 PLGA MPs and PLGA MPs without ATRA (PLGA-Blank MPs). The PLGA-Blank MPs were imaged using a live animal. In Vivo Imaging System (IVIS). […] Based on fluorescence attenuation, MPs remained localized in the joint after injection and steadily degraded over the course of the study (FIG. 3B). Arthritis progression was quantified using bi-weekly clinical scoring between the treatment groups. […] The improvement in clinical score and ankle thickness measurements were quantified in both the ipsilateral and contralateral joints in the above described studies (FIG. 3H-J, FIGS. 6B and C).

CC1=C(/C=C/C(C)=C/C=C/C(C)=C/C(=O)O)C(C)(C)CCC1 [ATRA, all-trans retinoic acid]
fraction of IL-17A+CD4+ T cells ([1]; 10 pM ATRA): 9.5±1.7% | fraction of IL-17A+CD4+ T cells ([1]; 100 pM ATRA): 7.2±1.5% | fraction of IL-17A+CD4+ T cells ([1]; 1 nM ATRA): 5.4±1.9% | fraction of RORγt+CD4+ T cells ([1]; 1 nM ATRA): 53.3±7.9% | fraction of IL-17A+CD4+ T cells ([1]; 10 nM ATRA): 5.4±2.3% | FoxP3 expression in CD4+ T cells ([1]; ATRA above 100 pM): 40.0±3.4% | FoxP3 expression in CD4+ T cells ([1]; ATRA below 100 pM): 11.2±2.3% | doses associated with toxicity [2]: > 14 mg/kg | OVA-specific CD4+ T cells (tetramer staining) [3]: significantly lower | FOXP3 expression [4]: increases | IL-17 expression [4]: reduces | cells expressing IL-17 [5]: 5.7±1.1% | cells expressing RORγt [5]: 11.6±1.8% | cells retaining FoxP3eGFP expression [5]: 71.6±5.5% | regions in the DNA more open in the ATRA treated cells ([6]; 1 nM ATRA versus Th17 control): 7957 | accessibility of FoxP3 locus ([6]; 1 nM ATRA, genome browser plot): promotes accessibility | regions in the DNA more open in the Th17 control ([6]; Th17 control versus 1 nM ATRA): 10316

CC1=C(/C=C/C(C)=C/C=C/C(C)=C/C(=O)O)C(C)(C)CCC1 [bolus ATRA, all-trans retinoic acid]
ankle swelling [7]: Neither bolus ATRA nor ATRA-encapsulated PLGA MPs provided improvement | clinical score [7]: Neither bolus ATRA nor ATRA-encapsulated PLGA MPs provided improvement | severity of arthritis / clinical benefit ([8]; 2 μg IA MPs versus dose-matched IA bolus): no clinical benefit | clinical scores in ipsilateral and contralateral ankles ([8]; dose-matched IA bolus in corn oil): increased comparably
